{"source": "patent US20260224566A1", "about": "“Obicetrapib and Ezetimibe Combination Treatment and Fixed Dose Pharmaceutical Compositions” (NewAmsterdam Pharma B.V., priority 2023, published 2026)", "type_in_all_cases": "physicochemical", "key": {"[1]": {"experiment": "Kinetic solubility in FeSSIF (pH 5.0) at 37° C.", "details": "as obicetrapib free acid", "excerpt": "(§1) The amorphous form has a higher kinetic solubility and dissolution rate than the crystalline form (and by extension obicetrapib itself). Both crystalline and amorphous obicetrapib hemicalcium kinetic solubility determinations were made in biorelevant media at different pHs, namely at about 5.0 (FeSSIF conditions) and at pH of about 6.5 (FaSSIF) conditions as set forth in Example 11.28.\nThe concentrations in Table W are those of obicetrapib (i.e., the free acid).\n(§2) The solids were magnetically stirred at 600 RPM in a shaker bath and samples were drawn with a 1.0 ml syringe at T=15 mins, 30 mins, 60 mins, 90 mins and 120 mins. The solubility was measured using HPLC method provided by the client. The compound was added to 4.0 ml glass vials at approximately 20.0 mg/ml. Samples were agitated with a vortex mixer for about 5 minutes to ensure the presence of undissolved excess powder. The sample collected at each time point was centrifuged at 1200 RPM, filtered with 0.45 μm Polytetrafluoroethylene (PTFE) filters and diluted with methanol before HPLC analysis. In order to minimize the effect of potential analyte adsorption on the filter, the initial 0.5 mL of supernatant passing through the filter was discarded prior to collecting sample for HPLC analysis."}, "[2]": {"experiment": "Kinetic solubility in FaSSIF (pH 6.5) at 37° C.", "details": "as obicetrapib free acid", "excerpt": "as §1\nThe concentrations in Table X are those of obicetrapib (i.e., the free acid).\nas §2"}, "[3]": {"experiment": "Stability study at 70° C./75% RH, open vial (physical stability by XRPD, chemical purity by HPLC)", "details": "75% relative humidity", "excerpt": "FIG. 54 is a plot of x-ray powder diffraction pattern taken of crystalline obicetrapib hemicalcium, and FIG. 55 is a plot of x-ray powder diffraction patterns taken of crystalline obicetrapib hemicalcium under stress conditions. In FIG. 55, there are four diffraction patterns shown based on stability study set forth in Example 11.27. Pattern 1 is an x-ray powder diffraction pattern of a sample of amorphous obicetrapib hemicalcium. Pattern 2 is the x-ray powder diffraction pattern of a sample of crystalline obicetrapib hemicalcium. In pattern 3, the sample of crystalline obicetrapib hemicalcium was exposed to 70° C. at 75% relative humidity for one day. […] Pattern 1 was taken before the sample was placed on stability.\nStability study was conducted on crystalline and amorphous forms of obicetrapib at 70° C./75% relative humidity (RH). The solids were placed into a 4.0 ml glass vial without caps (open condition) and stored at 70° C./75% RH. […] The solids were analyzed by XRPD for physical stability and by HPLC for chemical purity. The sample collected at each time point was dissolved in methanol before HPLC analysis. In order to minimize the effect of potential analyte adsorption on the filter, the initial 0.5 mL of supernatant passing through the filter was discarded prior to collecting sample for HPLC analysis. Purity for each sample was determined based on peak area percent and compared to the sample at T=0."}, "[4]": {"details": "15 mins, listed as Amorphous obicetrapib hemicalcium Batch #1"}, "[5]": {"details": "15 mins, listed as Amorphous obicetrapib hemicalcium Batch #2"}, "[6]": {"details": "30 mins, listed as Amorphous obicetrapib hemicalcium Batch #1"}, "[7]": {"details": "30 mins, listed as Amorphous obicetrapib hemicalcium Batch #2"}, "[8]": {"details": "60 mins, listed as Amorphous obicetrapib hemicalcium Batch #1"}, "[9]": {"details": "60 mins, listed as Amorphous obicetrapib hemicalcium Batch #2"}, "[10]": {"details": "90 mins, listed as Amorphous obicetrapib hemicalcium Batch #1"}, "[11]": {"details": "90 mins, listed as Amorphous obicetrapib hemicalcium Batch #2"}, "[12]": {"details": "120 mins, listed as Amorphous obicetrapib hemicalcium Batch #1"}, "[13]": {"details": "120 mins, listed as Amorphous obicetrapib hemicalcium Batch #2"}}, "note": "Counter-ions that a name gives are not always drawn.", "data": [{"smiles": "CCOC(=O)N1c2ccc(C(F)(F)F)cc2[C@@H](N(Cc2cc(C(F)(F)F)cc(C(F)(F)F)c2)c2ncc(OCCCC(=O)O)cn2)C[C@H]1CC", "note": "[amorphous obicetrapib hemicalcium, amorphous hemicalcium salt of (2R,4S)-4-{[3,5-bis(trifluoromethyl)benzyl]-[5-(3-carboxypropoxy)pyrimidin-2-yl]amino}-2-ethyl-6-trifluoromethyl-3,4-dihydro-2H-quinoline-1-carboxylic acid ethyl ester]", "values": [{"measurement": "Concentration in Solution", "setting": "[1]; [4]", "result": 520, "unit": "µg/mL"}, {"measurement": "Concentration in Solution", "setting": "[1]; [5]", "result": 502, "unit": "µg/mL"}, {"measurement": "Concentration in Solution", "setting": "[1]; [6]", "result": 661, "unit": "µg/mL"}, {"measurement": "Concentration in Solution", "setting": "[1]; [7]", "result": 618, "unit": "µg/mL"}, {"measurement": "Concentration in Solution", "setting": "[1]; [8]", "result": 675, "unit": "µg/mL"}, {"measurement": "Concentration in Solution", "setting": "[1]; [9]", "result": 628, "unit": "µg/mL"}, {"measurement": "Concentration in Solution", "setting": "[1]; [10]", "result": 696, "unit": "µg/mL"}, {"measurement": "Concentration in Solution", "setting": "[1]; [11]", "result": 658, "unit": "µg/mL"}, {"measurement": "Concentration in Solution", "setting": "[1]; [12]", "result": 675, "unit": "µg/mL"}, {"measurement": "Concentration in Solution", "setting": "[1]; [13]", "result": 642, "unit": "µg/mL"}, {"measurement": "Concentration in Solution", "setting": "[2]; [4]", "result": 60, "unit": "µg/mL"}, {"measurement": "Concentration in Solution", "setting": "[2]; [5]", "result": 90, "unit": "µg/mL"}, {"measurement": "Concentration in Solution", "setting": "[2]; [6]", "result": 99, "unit": "µg/mL"}, {"measurement": "Concentration in Solution", "setting": "[2]; [7]", "result": 140, "unit": "µg/mL"}, {"measurement": "Concentration in Solution", "setting": "[2]; [8]", "result": 163, "unit": "µg/mL"}, {"measurement": "Concentration in Solution", "setting": "[2]; [9]", "result": 229, "unit": "µg/mL"}, {"measurement": "Concentration in Solution", "setting": "[2]; [10]", "result": 201, "unit": "µg/mL"}, {"measurement": "Concentration in Solution", "setting": "[2]; [11]", "result": 293, "unit": "µg/mL"}, {"measurement": "Concentration in Solution", "setting": "[2]; [12]", "result": 244, "unit": "µg/mL"}, {"measurement": "Concentration in Solution", "setting": "[2]; [13]", "result": 387, "unit": "µg/mL"}, {"measurement": "physical stability by XRPD", "setting": "[3]; 7 days", "result": "remained amorphous"}, {"measurement": "physical stability by XRPD", "setting": "[3]; 14 days", "result": "remained amorphous"}]}, {"smiles": "CCOC(=O)N1c2ccc(C(F)(F)F)cc2[C@@H](N(Cc2cc(C(F)(F)F)cc(C(F)(F)F)c2)c2ncc(OCCCC(=O)[O-])cn2)C[C@H]1CC.CCOC(=O)N1c2ccc(C(F)(F)F)cc2[C@@H](N(Cc2cc(C(F)(F)F)cc(C(F)(F)F)c2)c2ncc(OCCCC(=O)[O-])cn2)C[C@H]1CC.[Ca+2]", "note": "[crystalline obicetrapib hemicalcium, reference compound]", "values": [{"measurement": "physical stability by XRPD", "setting": "[3]; 7 days", "result": "the result remains the same"}, {"measurement": "physical stability by XRPD", "setting": "[3]; one day", "result": "near total loss of crystallinity"}]}]}
